This note sets out measurements from US20210300943A1, “OGA INHIBITOR COMPOUNDS” (Janssen Pharmaceutica NV, priority 2018, published 2021).

Each structure is given as a SMILES string. Where only a bound is given, the exact number is not on record here.

The target in one test is T1, OGA (Homo sapiens, UniProt O60502).
T1 construct: endogenous in cells; host or cells: HEK293 cells inducible for P301L mutant human Tau (2N4R)
T1 sequence (O60502 1-916): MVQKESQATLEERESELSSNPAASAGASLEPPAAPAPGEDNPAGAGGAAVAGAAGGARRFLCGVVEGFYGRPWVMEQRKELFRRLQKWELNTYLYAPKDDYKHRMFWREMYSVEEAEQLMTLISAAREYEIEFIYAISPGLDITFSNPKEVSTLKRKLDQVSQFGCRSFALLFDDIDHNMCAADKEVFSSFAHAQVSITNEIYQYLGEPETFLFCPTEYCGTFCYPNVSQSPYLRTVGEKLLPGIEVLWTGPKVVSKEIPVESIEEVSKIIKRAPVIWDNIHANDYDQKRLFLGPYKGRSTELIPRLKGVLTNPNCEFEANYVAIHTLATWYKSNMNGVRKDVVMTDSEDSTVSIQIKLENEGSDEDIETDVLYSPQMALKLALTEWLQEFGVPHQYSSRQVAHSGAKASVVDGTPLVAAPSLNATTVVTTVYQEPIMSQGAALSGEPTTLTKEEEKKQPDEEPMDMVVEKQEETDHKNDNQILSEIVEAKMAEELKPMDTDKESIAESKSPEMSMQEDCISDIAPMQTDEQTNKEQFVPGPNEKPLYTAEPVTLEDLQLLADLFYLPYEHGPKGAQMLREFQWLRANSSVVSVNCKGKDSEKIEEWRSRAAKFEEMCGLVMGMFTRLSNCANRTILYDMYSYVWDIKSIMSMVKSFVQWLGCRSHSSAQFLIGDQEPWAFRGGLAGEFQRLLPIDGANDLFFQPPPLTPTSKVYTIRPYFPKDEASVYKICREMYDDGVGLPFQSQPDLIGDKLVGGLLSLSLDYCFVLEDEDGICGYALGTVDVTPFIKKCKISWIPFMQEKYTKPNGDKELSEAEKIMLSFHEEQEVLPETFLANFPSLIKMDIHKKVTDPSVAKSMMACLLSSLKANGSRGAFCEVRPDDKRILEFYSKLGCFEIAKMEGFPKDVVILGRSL
Nature of the test: OGA cellular assay (ICC detection of O-GlcNAcylated proteins in HEK293 cells inducible for P301L mutant human Tau). Format: cell-based. The following applies: for EC50: read-out: Cellular hOGA, pEC50 (converted); for Cellular Emax (%) / Emax: maximal effect, Thiamet G 200 uM as maximum; for Emax: HEK293, HEK293 cells inducible for P301L mutant human Tau. In a few lines: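 HEK293 cells inducible for P301L Tau, in low-glucose assay medium, treated 6 h with compound at 0.2% DMSO. O-GlcNAcylated proteins detected by CTD110.6 immunostaining, imaged at 488 nm with Hoechst nuclear counts for toxicity. IC50 from non-linear regression, 200 uM Thiamet G as maximum.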

Test [1] addresses T2, recombinant human Meningioma Expressed Antigen 5 (MGEA5), also referred to as O-GlcNAcase (OGA) (Homo sapiens, UniProt O60502).
T2 construct: Full length OGA enzyme was purchased at OnGene (cat #TP322411); purchased OnGene (so in the source)
T2 sequence (O60502 1-916): T1 sequence (O60502 1-916)
Nature of the test: OGA biochemical assay (inhibition of FM-GlcNAc hydrolysis, fluorescence). The conditions noted are these: for Emax / Enzymatic Emax (%): maximal effect; for Emax: read-out: Enzymatic Emax (%); for IC50: read-out: Enzymatic hOGA, pIC50 (converted). In a few lines:
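Full-length recombinant OGA (2 nM) pre-incubated with compound 60 min at room temperature, then FM-GlcNAc (100 µM final) added in citrate/phosphate buffer pH 7.2 with 0.005% Tween-20. After 6 h at room temperature, stopped with carbonate pH 11.0; fluorescein read at 485/538 nm; IC50 and Hill coefficient from curve fit.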

[2] abbreviates: HEK293 cells inducible for P301L mutant human Tau, 6 hours incubation.
Where [3] appears, read: HEK293 cells inducible for P301L mutant human Tau.

For orientation: Emax means the greatest response seen or fitted, relative to the assay's reference. With `Cc1cc(OC[C@H]2CCCN(C(C)c3ccc4c(n3)OCCO4)C2)nc(C)n1` (single isomer, unassigned) [Product 162], the EC50 at OGA (setting [2]) was greater than 1000 nM. For the same compound, the “Cellular Emax (%)” value at OGA (setting [3]) was found to be 3%. Moreover, in test [1], the Emax was 93% and the IC50 is 794 nM.

For `Cc1cc(OC[C@H]2CCCN([C@H](C)c3ccc4c(n3)OCCO4)C2)nc(C)n1` (mixture of isomers) [Product 114], the Emax on OGA came to 66%. The EC50 on OGA (setting [2]) was 158 nM. Besides, in test [1], the Emax is 100% and the IC50 is 15.8 nM.

Take `Cc1cc(C[C@H]2CCCN(C(C)c3cnc4c(c3)OCCN4)C2)cc(C)n1` (single isomer, unassigned) [Product 52]: on OGA, the Emax worked out at 92%. For the same compound, the EC50 at OGA (setting [2]) was 6.31 nM. Also, in test [1], the “Enzymatic Emax (%)” value stood at 104% and the IC50 was 1.26 nM.

Turning to `Cc1cc(C[C@H]2CCCN(C(C)c3ccc4c(n3)OCCO4)C2)cc(OC(F)(F)F)n1` (mixture of isomers) [Product 67], the Emax on OGA was 89%. The EC50 at OGA (setting [2]) was 79.4 nM. Further, in test [1], the Emax came out at 102% and the IC50 was 7.94 nM.

For `Cc1cc(CC2CN(C(C)c3ccc4c(n3)OCCO4)CCC2O)cc(C)n1` (centres unmarked) [Product 173], on OGA, the Emax stood at 64%. The EC50 on OGA (setting [2]) was 631 nM. In test [1], the Emax is 99% and the IC50 is 63.1 nM.

In the case of `Cc1cc(OC[C@H]2CCCN(C(C)c3cnc4c(c3)OCCN4)C2)cc(C)n1` (some centres unmarked) [Product 147], the “Cellular hOGA; pEC50” value at OGA (setting [2]) came to 8.0. For the same compound, the “Cellular Emax (%)” value at OGA (setting [3]) came out at 80%. In addition, in test [1], the “Enzymatic hOGA; pIC50” value stood at 8.2 and the “Enzymatic Emax (%)” value is reported as 100%.

As for `COc1cc(NCC2CCCN(C(C)c3ccc4c(n3)OCCO4)C2)cc(C)n1` (centres unmarked) [Product 23], the Emax at OGA is 81%. On OGA (setting [2]), the EC50 was 7.94 nM. In test [1], the Emax came out at 100% and the IC50 was 10 nM.

With `Cc1cc(OC2CCCN(C(C)c3cnc4c(c3)OCCN4)C2)cc(C)n1` (centres unmarked) [Product 14], on OGA, the Emax turned out to be 60%. Further, the EC50 on OGA (setting [2]) is 631 nM. In test [1], the Emax was determined as 101% and the IC50 is 5.01 nM.

As for `Cc1cc(C[C@H]2CCCN(Cc3ccc4c(c3)OCCN4C)C2)cc(C)n1` [Product 48], the Emax at OGA was 5%. Further, the EC50 at OGA (setting [2]) was greater than 1000 nM. Further, in test [1], the Emax was 93% and the IC50 is 501 nM.

For `Cc1cc([C@@H]2CCCN(C(C)c3ccc4c(n3)OCCO4)C2)cc(C)n1` (single isomer, unassigned) [Product 150], the Emax at OGA is 3%. Moreover, on OGA (setting [2]), the EC50 is greater than 1000 nM. Moreover, in test [1], the Emax came out at 92% and the IC50 was 2000 nM.

Regarding `Cc1cc([C@H]2CCCN(C(C)c3ccc4c(n3)OCCO4)C2)cc(C)n1` (single isomer, unassigned) [Product 149], the figures for the Emax (on OGA; in test [1]) were 93% and 100%, respectively. For the same compound, on OGA (setting [2]), the EC50 was 31.6 nM. In test [1], the IC50 was 10 nM.

Take `Cc1cc([C@H]2CCCN(C(C)c3nc4c(cc3F)CCO4)C2)cc(C)n1` (single isomer, unassigned) [Product 171]: the Emax on OGA was 78%. Further, the EC50 on OGA (setting [2]) was 2.51 nM. In test [1], the Emax came to 100% and the IC50 is 2.51 nM.

Turning to `CC(c1nc2c(cc1F)OCCO2)N1CCC[C@@H](CNc2ccc(F)cc2)C1` (some centres unmarked) [Product 195], on OGA, the Emax stood at 112%. The EC50 on OGA (setting [2]) is 79.4 nM. In test [1], the Emax came to 100% and the IC50 was 15.8 nM.

Turning to `Cc1cc(C[C@H]2CCCN(C(C)c3ccc4c(c3)OCCN4C)C2)cc(C)n1` (mixture of isomers) [Product 49], the EC50 on OGA (setting [2]) was greater than 1000 nM. Further, in test [1], the Emax came to 103% and the IC50 was 126 nM.

On to `Cc1cc([C@H]2CCCN([C@H](C)c3ccc4c(n3)OCCO4)C2)c(F)c(C)n1` (single isomer, unassigned) [Product 186], for which, on OGA, the Emax is -6%. Also, the EC50 at OGA (setting [2]) is greater than 1000 nM. Moreover, in test [1], the Emax came to 83% and the IC50 was 2000 nM.

Turning to `COc1cc(C[C@H]2CCCN(C(C)c3ccc4c(n3)OCCO4)C2)cc(C)n1` (mixture of isomers) [Product 63], at OGA, the Emax was determined as 69%. In addition, on OGA (setting [2]), the EC50 is 31.6 nM. Further, in test [1], the Emax was determined as 101% and the IC50 was 7.94 nM.

Consider `COc1cc(NCC2CCCN(C(C)c3ccc4c(c3)OCC4)C2)cc(C)n1` (centres unmarked) [Product 30], for which the Emax at OGA came to 81%. Also, the EC50 on OGA (setting [2]) is 6.31 nM. Also, in test [1], the Emax came out at 104% and the IC50 was 7.94 nM.

Consider `Cc1cc(CO[C@H]2CCCN(C(C)c3nc4c(cc3F)OCCO4)C2)cc(C)n1` (single isomer, unassigned) [Product 170], for which the EC50 on OGA (setting [2]) was 12.6 nM. On OGA (setting [3]), the “Cellular Emax (%)” value is 79%. In test [1], the “Enzymatic Emax (%)” value came to 98% and the IC50 is 3.16 nM.

For `Cc1cc(CC2(F)CCCN([C@H](C)c3nc4c(cc3F)OCCO4)C2)cc(C)n1` (single isomer, unassigned) [Product 174], the Emax is 75% on OGA and 99% in test [1]. For the same compound, the EC50 at OGA (setting [2]) was 63.1 nM. Also, the IC50 in test [1] was 6.31 nM.

Turning to `Cc1cc([C@H]2CCCN(C(C)c3nc4c(cc3F)OCCO4)C2)cc(C)n1` (single isomer, unassigned) [Product 164], the Emax at OGA is 86%; in test [1] it was 100%. Besides, the EC50 at OGA (setting [2]) is 6.31 nM. Moreover, the IC50 in test [1] is 3.16 nM.

For `Cc1cc(NCC2CCCN(C(C)c3cc4c(cc3F)OCCO4)C2)cc(C(F)(F)F)n1` (centres unmarked) [Product 99], the Emax at OGA is 65%. Further, on OGA (setting [2]), the EC50 was 25.1 nM. In addition, in test [1], the Emax amounted to 105% and the IC50 is 5.25 nM.

Regarding `Cc1cc(NCC2CCCN(C(C)c3ccc4c(c3)OCC4)C2)cc(C(F)(F)F)n1` (centres unmarked) [Product 36], the Emax at OGA came out at 88%; in test [1], 101%. For the same compound, the EC50 at OGA (setting [2]) was 126 nM.

Take `Cc1cc(C2CCCN(C(C)c3ccc4c(n3)OCCO4)C2)c(F)c(C)n1` (centres unmarked) [Product 185]: the Emax at OGA came to 65%. Moreover, the EC50 at OGA (setting [2]) was 50.1 nM. Moreover, in test [1], the Emax worked out at 100% and the IC50 is 15.8 nM.

`Cc1cc(C[C@H]2CCCN(C(C)c3ccc4c(n3)OCCO4)C2)cc(C(F)(F)F)n1` (mixture of isomers) [Product 69]: the Emax on OGA amounted to 90%. Also, the EC50 on OGA (setting [2]) is 50.1 nM. Besides, in test [1], the Emax was 102% and the IC50 was 12.6 nM.

Regarding `COc1cc(OC[C@H]2CCCN([C@H](C)c3ccc4c(n3)OCCO4)C2)cc(C)n1` (racemic) [Product 110], on OGA, the Emax came to 68%. Moreover, the EC50 at OGA (setting [2]) was 316 nM. In test [1], the Emax stood at 102% and the IC50 is 12.6 nM.

As to `Cc1cc(CO[C@H]2CCCN(C(C)c3nc4c(cc3F)OCCO4)C2)cc(C)n1` (single isomer, unassigned) [Product 169], the EC50 at OGA (setting [2]) was greater than 1000 nM. The “Cellular Emax (%)” value at OGA (setting [3]) is recorded as −5%. Moreover, in test [1], the Emax came to 85% and the IC50 is 2000 nM.

`COc1cc(OC[C@H]2CCCN([C@H](C)c3ccc4c(n3)OCCO4)C2)cc(C)n1` (single isomer, unassigned) [Product 183]: the Emax on OGA worked out at 65%. In addition, on OGA (setting [2]), the EC50 is 50.1 nM. In addition, in test [1], the Emax turned out to be 99% and the IC50 was 7.94 nM.

Regarding `COc1cc(N[C@H]2CCCN(C(C)c3ccc4c(n3)OCCO4)C2)cc(C)n1` (some centres unmarked) [Product 192], on OGA, the Emax was determined as 91%. Moreover, the EC50 on OGA (setting [2]) was 20 nM. Moreover, in test [1], the Emax was 99% and the IC50 was 6.31 nM.
